Test results taken from ChEMBL document CHEMBL1201862, “PubChem BioAssay data set” (2004).
Calls of active or inactive are those of the source.

Assays:
[1] = target: Heat shock protein HSP 90-alpha (Homo sapiens, UniProt P07900); format: functional, organism-based
[2] = Luminescence Cell-Based Dose Retest to Confirm Inhibitors of Cancer Stem Cells. [Related pubchem assays (depositor defined):AID2717, AID2721]; format: functional; conditions: Homo sapiens
[3] = target: Induced myeloid leukemia cell differentiation protein Mcl-1 (Homo sapiens, UniProt Q07820); format: functional
[4] = target: T1, High affinity choline transporter 1 (Homo sapiens, UniProt Q9GZV3); assay: human choline transporter blockers, potency – cell-based, 5-point CRC, membrane potential dye, dose response (AID 504840); format: functional
T1 sequence (Q9GZV3 whole entry): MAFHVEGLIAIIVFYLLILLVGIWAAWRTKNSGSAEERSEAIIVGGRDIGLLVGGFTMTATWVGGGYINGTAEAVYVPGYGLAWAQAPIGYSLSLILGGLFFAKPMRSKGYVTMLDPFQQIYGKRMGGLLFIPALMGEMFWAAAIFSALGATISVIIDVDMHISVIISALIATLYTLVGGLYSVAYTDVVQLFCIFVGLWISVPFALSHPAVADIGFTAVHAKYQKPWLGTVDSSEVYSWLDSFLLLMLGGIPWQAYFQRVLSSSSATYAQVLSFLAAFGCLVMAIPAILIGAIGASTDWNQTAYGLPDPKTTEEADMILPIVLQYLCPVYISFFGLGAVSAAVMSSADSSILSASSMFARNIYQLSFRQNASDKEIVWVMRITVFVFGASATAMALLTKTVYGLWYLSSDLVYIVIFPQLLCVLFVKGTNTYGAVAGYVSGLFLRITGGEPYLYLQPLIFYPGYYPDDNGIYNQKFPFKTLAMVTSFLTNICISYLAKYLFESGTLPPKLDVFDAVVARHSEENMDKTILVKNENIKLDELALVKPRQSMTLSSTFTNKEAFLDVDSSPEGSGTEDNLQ

BJ [5] = assay: BJ-TERT fibroblast viability loss – cell-based, RAS-independent, luminescence, dose response (AID 1933); format: functional; conditions: Homo sapiens
[6] = loss of viability in HepG2 cells – cell-based, CellTiter-Glo, cherry-picked, cytotoxicity control for Shn3 inhibitor project, dose response (AID 624134); format: functional
BJ [7] = assay: BJ-TERT-LT-ST fibroblast viability loss – cell-based, RAS-independent, luminescence, dose response (AID 1935); format: functional; conditions: Homo sapiens;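 note: BJ fibroblasts immortalized with TERT plus LT and ST oncogenes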
BJ [8] = assay: cells; format: functional, cell-based; conditions: Homo sapiens
BJ [9] = assay: growth inhibition of engineered Ras-driven BJ cells – cell-based, alamar blue fluorescence, cherrypicked samples, dose response (AID 2631); format: functional; conditions: Homo sapiens;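 note: confirmatory dose-response assay in RAS-dependent BJ fibroblasts engineered with TERT, LT and ST, with cytotoxicity read by fluorescence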
[10] = reduction of Shn3 3'UTR-driven luciferase in osteoblasts – cell-based, Clone20 osteoblasts, firefly luciferase, cherry-picked, dose response (AID 624132); format: functional;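 note: firefly luciferase luminescence from reporter carrying the Shn3 3'UTR in osteoblasts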
[11] = DRD fibroblast viability loss – cell-based, non-viral oncogenic, luminescence, dose response (AID 1934); format: functional; conditions: Homo sapiens
[12] = target: T2, Mannose-6-phosphate isomerase (Homo sapiens, UniProt P34949); assay: MPI inhibition at elevated mannose 6-phosphate – biochemical, fluorescence intensity, high mannose 6-phosphate, primary screen (AID 1220)
T2 sequence (P34949 whole entry): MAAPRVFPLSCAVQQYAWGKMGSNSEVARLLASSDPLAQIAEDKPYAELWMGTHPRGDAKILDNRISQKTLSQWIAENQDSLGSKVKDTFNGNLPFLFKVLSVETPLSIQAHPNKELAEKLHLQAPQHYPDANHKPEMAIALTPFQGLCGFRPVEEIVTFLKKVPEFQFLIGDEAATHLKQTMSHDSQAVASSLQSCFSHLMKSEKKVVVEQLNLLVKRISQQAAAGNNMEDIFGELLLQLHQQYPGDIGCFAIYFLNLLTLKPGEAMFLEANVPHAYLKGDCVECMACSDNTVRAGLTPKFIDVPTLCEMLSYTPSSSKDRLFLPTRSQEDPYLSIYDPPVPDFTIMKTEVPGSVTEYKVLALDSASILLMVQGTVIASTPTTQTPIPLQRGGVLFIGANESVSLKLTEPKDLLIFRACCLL

[13] = target: T3, Short transient receptor potential channel 4 (Mus musculus, UniProt Q9QUQ5); assay: block of DAMGO-driven TRPC4 calcium entry – cell-based, HEK293 TRPC4/mu-opioid, Fluo-4 calcium, dose response (AID 434942); format: functional;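 note: potency of inhibitors blocking the TRPC4 calcium response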
T3 sequence (Q9QUQ5 whole entry): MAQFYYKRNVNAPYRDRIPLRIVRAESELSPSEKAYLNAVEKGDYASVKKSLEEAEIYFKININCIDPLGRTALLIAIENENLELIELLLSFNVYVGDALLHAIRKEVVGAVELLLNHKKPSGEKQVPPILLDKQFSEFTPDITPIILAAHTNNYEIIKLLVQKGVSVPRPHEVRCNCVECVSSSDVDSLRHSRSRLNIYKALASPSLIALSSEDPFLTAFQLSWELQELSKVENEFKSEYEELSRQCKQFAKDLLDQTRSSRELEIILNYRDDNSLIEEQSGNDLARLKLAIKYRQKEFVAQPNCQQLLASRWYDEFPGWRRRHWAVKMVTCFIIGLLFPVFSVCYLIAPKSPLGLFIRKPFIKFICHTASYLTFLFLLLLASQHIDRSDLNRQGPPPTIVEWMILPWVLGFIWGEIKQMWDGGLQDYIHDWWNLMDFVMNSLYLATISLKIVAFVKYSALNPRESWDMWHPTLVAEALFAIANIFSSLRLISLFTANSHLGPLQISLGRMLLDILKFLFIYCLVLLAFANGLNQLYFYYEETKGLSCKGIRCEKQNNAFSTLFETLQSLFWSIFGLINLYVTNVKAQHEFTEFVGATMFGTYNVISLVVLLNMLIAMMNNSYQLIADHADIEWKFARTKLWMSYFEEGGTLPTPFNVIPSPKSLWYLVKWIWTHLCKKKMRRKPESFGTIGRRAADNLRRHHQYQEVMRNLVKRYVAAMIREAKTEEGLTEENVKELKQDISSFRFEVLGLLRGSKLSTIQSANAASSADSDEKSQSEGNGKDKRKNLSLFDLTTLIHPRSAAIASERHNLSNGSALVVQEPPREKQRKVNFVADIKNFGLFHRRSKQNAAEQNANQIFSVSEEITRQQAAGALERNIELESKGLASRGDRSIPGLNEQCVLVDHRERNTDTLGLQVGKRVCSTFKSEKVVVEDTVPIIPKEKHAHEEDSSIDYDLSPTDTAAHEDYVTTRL

[14] = target: T4, Rac GTPase-activating protein 1 (Homo sapiens, UniProt Q9H0H5); assay: blockers of MgcRacGAP-driven Rac1 GTP hydrolysis – biochemical, ADP Hunter fluorescence, primary and confirmatory, confirmation (AID 624330); format: functional
T4 sequence (Q9H0H5 whole entry): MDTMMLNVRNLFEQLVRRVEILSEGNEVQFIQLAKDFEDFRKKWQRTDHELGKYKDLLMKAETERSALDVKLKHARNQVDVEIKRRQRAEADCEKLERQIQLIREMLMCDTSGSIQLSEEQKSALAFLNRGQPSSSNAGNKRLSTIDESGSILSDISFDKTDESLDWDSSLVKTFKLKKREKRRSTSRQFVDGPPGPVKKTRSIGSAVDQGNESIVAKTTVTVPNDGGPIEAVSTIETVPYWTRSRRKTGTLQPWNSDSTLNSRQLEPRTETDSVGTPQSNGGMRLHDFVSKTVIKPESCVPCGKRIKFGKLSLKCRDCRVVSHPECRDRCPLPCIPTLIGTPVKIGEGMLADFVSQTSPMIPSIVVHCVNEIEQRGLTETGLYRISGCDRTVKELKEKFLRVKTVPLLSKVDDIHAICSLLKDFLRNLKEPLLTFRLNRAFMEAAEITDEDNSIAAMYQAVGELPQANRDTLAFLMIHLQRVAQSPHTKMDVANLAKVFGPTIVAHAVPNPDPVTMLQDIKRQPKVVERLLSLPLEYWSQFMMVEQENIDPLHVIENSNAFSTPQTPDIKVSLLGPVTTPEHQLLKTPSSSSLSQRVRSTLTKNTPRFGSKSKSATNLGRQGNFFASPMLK

[15] = HEK-293T viability loss after treatment – luminescence, T-cell screen hits, cytotoxicity control for TCR NF-kB inhibitor project, dose response (AID 489026); format: functional, cell-based;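 note: cells exposed to compound about 14 hours before the viability readout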
[16] = target: T5, DNA repair and recombination protein RAD54-like (Homo sapiens, UniProt Q92698); assay: RAD54 Holliday junction migration blockers – biochemical, fluorescence, cherry-picked samples, dose series, confirmation (AID 651657); format: functional
T5 sequence (Q92698 whole entry): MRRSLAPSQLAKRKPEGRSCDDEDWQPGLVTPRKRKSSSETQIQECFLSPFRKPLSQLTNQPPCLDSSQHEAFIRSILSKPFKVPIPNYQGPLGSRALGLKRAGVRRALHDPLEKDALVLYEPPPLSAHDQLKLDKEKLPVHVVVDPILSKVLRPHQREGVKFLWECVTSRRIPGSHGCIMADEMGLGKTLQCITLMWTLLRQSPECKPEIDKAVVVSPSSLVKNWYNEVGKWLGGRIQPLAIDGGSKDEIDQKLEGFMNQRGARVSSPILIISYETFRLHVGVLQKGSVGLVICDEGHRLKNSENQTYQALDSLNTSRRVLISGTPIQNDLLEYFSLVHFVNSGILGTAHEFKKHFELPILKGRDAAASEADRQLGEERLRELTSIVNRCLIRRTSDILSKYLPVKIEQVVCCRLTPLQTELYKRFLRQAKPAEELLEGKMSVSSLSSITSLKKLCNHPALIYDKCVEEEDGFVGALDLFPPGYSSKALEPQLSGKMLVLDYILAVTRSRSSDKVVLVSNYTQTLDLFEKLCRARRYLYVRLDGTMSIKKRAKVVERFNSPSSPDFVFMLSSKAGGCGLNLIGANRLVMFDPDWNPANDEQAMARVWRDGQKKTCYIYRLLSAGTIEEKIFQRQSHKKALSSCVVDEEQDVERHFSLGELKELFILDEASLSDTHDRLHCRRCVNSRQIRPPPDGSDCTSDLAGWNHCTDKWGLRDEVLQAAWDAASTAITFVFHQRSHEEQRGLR

[17] = target: T6, Carboxy-terminal domain RNA polymerase II polypeptide A small phosphatase 1 (Homo sapiens, UniProt Q9GZU7); assay: CTDSP1 inhibitors, concentration-response, biochemical, absorbance readout, ultra-high-throughput screen actives (AID 540297); format: functional
T6 sequence (Q9GZU7 whole entry): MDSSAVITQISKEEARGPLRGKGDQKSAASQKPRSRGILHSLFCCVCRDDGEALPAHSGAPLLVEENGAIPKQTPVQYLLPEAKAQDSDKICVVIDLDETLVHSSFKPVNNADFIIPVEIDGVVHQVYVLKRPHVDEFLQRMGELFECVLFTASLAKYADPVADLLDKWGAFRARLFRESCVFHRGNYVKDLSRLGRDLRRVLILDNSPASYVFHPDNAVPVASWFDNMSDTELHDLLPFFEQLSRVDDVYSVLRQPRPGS

Chain of Induced myeloid leukemia cell differentiation protein Mcl-1 (Q07820 whole entry): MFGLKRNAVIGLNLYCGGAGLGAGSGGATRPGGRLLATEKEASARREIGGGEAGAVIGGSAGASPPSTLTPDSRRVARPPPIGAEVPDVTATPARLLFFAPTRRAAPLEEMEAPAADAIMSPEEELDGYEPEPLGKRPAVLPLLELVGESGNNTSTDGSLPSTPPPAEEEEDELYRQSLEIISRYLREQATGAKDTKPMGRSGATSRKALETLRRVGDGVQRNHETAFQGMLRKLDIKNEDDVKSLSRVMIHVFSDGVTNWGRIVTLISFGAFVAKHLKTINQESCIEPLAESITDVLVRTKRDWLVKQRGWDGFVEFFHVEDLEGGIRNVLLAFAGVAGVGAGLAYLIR

O=C(NCCCSc1ccccc1)c1cc(Br)ccc1O
AC50 [1]: 4.6 µM (active) | AC50 [2]: 3.38 µM (active)

CC(=O)N1CCc2cc(S(=O)(=O)NC(Cc3ccccc3)C(=O)NC3CCCCCC3)ccc21 (stereo not drawn)
IC50 [3]: 4.58 µM (not active)

CN(Cc1ccccc1)C(=O)CN1CCN(C(c2ccccc2)c2ccccc2)CC1
IC50 [4]: 11.5 µM (active)

Cc1cccc(N2CCN(C(=S)Nc3ccc4nc(N5CCN(C)CC5)cc(C)c4c3)CC2)c1C
EC50 (BJ [5]): 1.22 µM (inconclusive) | AC50 [6]: 6.83 µM (active) | EC50 (BJ [7]): 1.33 µM (inconclusive) | EC50 (BJ [8]): 5.6 µM (inconclusive) | EC50 (BJ [9]): 0.585 µM (active) | AC50 [10]: 5.45 µM (active) | EC50 [11]: 2.46 µM (active)

CCOC(=O)C1=C(C)NC(=O)CC1c1cc2c(cc1[N+](=O)[O-])OCO2 (stereo not drawn)
IC50 [12]: > 50 µM (not active) | EC50 [13]: 1.68 µM (active) | IC50 [14]: 100 µM (active)

Cc1cc(C)cc(NS(=O)(=O)c2ccc(-c3cnc(C4CC4)o3)cc2)c1
EC50 (BJ [5]): 0.346 µM (active) | IC50 [15]: > 80 µM (inactive) | EC50 (BJ [7]): 0.521 µM (inconclusive) | EC50 (BJ [8]): 26.2 µM (active) | EC50 (BJ [9]): < 0.104 µM (active) | EC50 [11]: 0.525 µM (active)

O=C(c1ccc(COc2ccccc2[N+](=O)[O-])o1)N1CCCCCC1
IC50 [4]: 12.6 µM (active)

Cc1nnc2c(N3CCN(CCO)CC3)nc3ccccc3n12
AC50 [16]: 57.7 µM (active)

CCOC(=O)C1CCCN(c2ccc(NC(=O)c3snc4c(=O)[nH]c(C)nc34)cc2)C1 (stereo not drawn)
IC50 [3]: 5.25 µM (active)

CCN(CC)CCNC(=O)c1cc2cc3ccc(OC)cc3nc2o1
AC50 [16]: 40.7 µM (active)

CN1CCN(CCCNC(=O)c2cc3c(=O)oc4ccccc4c3s2)CC1
AC50 [16]: 38.1 µM (active)

CC(=O)Nc1ccc(-c2csc(NC(=O)C3CC(=O)N(c4ccc5c(c4)OCCO5)C3)n2)cc1 (stereo not drawn)
IC50 [3]: 3.44 µM (active)

CCc1ccccc1NC(=O)c1cccc(Oc2ccc([N+](=O)[O-])cc2Cl)c1
AC50 [1]: 4.35 µM (active)

CCCNc1nc2nc3ccccn3c(=O)c2cc1C(=O)NCCN1CCOCC1
AC50 [16]: 32.4 µM (active)

Cc1ccc(NC(S)=NNC(=O)c2cccc([N+](=O)[O-])c2)cc1Cl
IC50 [4]: 12.6 µM (active)

O=c1c2ccccc2oc2cc(NCCCN3CCOCC3)ccc12
AC50 [16]: 23.3 µM (active)

Cc1c(CN2CCCCC2)c(O)n(CCO)c(=O)c1C#N
IC50 [12]: > 50 µM (not active)

CCOC(=O)c1c(NC(=O)CCN2C(=O)c3cccc([N+](=O)[O-])c3C2=O)sc(C(=O)OC(C)C)c1C
IC50 [4]: 12.6 µM (active)

COc1ccc(N2CCN(C(=O)Cc3ccc(S(=O)(=O)N4CCOCC4)s3)CC2)cc1
IC50 [17]: 6.08 µM (active)

COc1ccc(NC(=O)CN(C)C(=O)/C=C/c2cn(Cc3ccccc3)nc2-c2cccnc2)cc1
IC50 [17]: 8.74 µM (active)

Cc1ccc(NC(=O)/C=C/c2ccco2)nc1
IC50 [17]: 11.7 µM (active)

COc1ccc(N2C(=O)CC(Sc3nc[nH]n3)C2=O)c(OC)c1 (stereo not drawn)
IC50 [12]: > 50 µM (not active)

CC(=O)OC1C(=O)OCC23CCC4(C)OC4C2OC2CC(OC(=O)C=CC=CC(=O)OCCC1C)C3(C)C21CO1 (stereo not drawn)
AC50 [1]: 2.3 µM (active)

CCOC(=O)C1=C(C)N=c2s/c(=C\c3ccc(C(=O)O)cc3)c(=O)n2C1c1ccc(OC)cc1OC (stereo not drawn)
IC50 [17]: 7.72 µM (active)
